Values joined by “and” are separate entries in the source; they are usually repeats but may differ in a detail not shown here. Equal entries are not always repeated.
Key:
Format in all cases: physicochemical
[1] = Phase solubility in deionized water (HPLC); conditions: for pH of mixture: aqueous solubility measurements, supplement; for pH at saturation solubility / solubility: deionized H2O, quadruplicates
Experimental: The pH‐solubility profile of cGMPSA salts and free acid was determined by phase solubility techniques.[18] Briefly, saturated mixtures of the compound were prepared by adding excess amount to 4 mL vials containing 2 mL deionized water, an acidic buffer (0.1 M HCl(aq), pH 1), or a basic buffer (0.1 M NaOH(aq), pH 13). They were allowed to equilibrate for 24 h using mild agitation before recording the pH. The clear solution was separated from the solids by filtration with a Cytiva Whatman™ Mini‐Uniprep™ polypropylene 0.45 μm filter device and diluted to an appropriate analytical concentration where needed. The sample was then analyzed by HPLC, and the solubility determined by integrating the area of the peak of interest against a standard curve. The solids were also analyzed by XRPD to record the crystal modification obtained.

[2] = Dynamic vapor sorption (DVS), water sorption as Δm; conditions: for Water sorption Δm: 25 °C; for Observed Δm: DVS step compared to theoretical hydrate mass change; for Stable %RH range: RH range of the corresponding hydrate step on DVS; for change in mass (Δm): at 95 % relative humidity (maximum RH), stated in text
Experimental: The samples were analyzed at 25 °C with a Surface Measurements Systems DVS Advantage. A sample was weighted into a weighing pan and its mass was monitored while it was exposed to different relative humidities (%RH=%P/P0). Before the analysis, the weighing pan was subject to an antistatic program.
The analysis program consisted of two cycles. In each cycle, the relative humidity was increased stepwise up to 95 % RH (starting from 0 % RH, 9 steps with 10 % and one step with 5 %) and then decreased stepwise to 0 % RH again. In both sorption/desorption cycles, at each step, the sample was kept at the set relative humidity until dm/dt <0.002 %, over 15 min.

[3] = Thermal analysis (DSC/TGA), decomposition; conditions: DSC 25 to 300 °C, 10 °C/min
Experimental: Differential scanning calorimetry (DSC) analyses were carried out on a Mettler DSC822e, equipped with a Thermo Haake EK45/MT cooler. The samples were weighed into a 40 μL Al‐cup, which were then closed with a pierced lid. The sample was scanned from 25 to 300 °C, with a scan rate of 10 °C/min.
Thermogravimetric analysis (TGA) was performed on a Mettler TGA/SDTA 851e, equipped with a Haake C50P cooler. Alternatively, thermogravimetric and DSC analyses were carried out simultaneously in a Mettler Toledo TGA/DSC 3+. The samples were weighed into a 100 μL Al‐cup and this was flushed with dry nitrogen gas during the analysis. The sample was scanned from 25 to 300 °C, with a scan rate of 10 °C/min.

[4] = 0 % RH, after final desorption cycle 2 (D2)
[5] = 30 % RH, desorption cycle 2 (D2)
[6] = 60 % RH, desorption cycle 2 (D2)
[7] = 95 % RH, desorption cycle 2 (D2)
[8] = hydrate step stable over 40–70 % RH
[9] = hydrate step stable over 60–95 % RH

Structure (SMILES) | pH of mixture [1] | pH at saturation solubility [1] | solubility [1] | Water sorption Δm [2, 4] | Water sorption Δm [2, 5] | Water sorption Δm ([2]; 30 % RH, sorption cycle 1 (S1)) | Water sorption Δm [2, 6] | Water sorption Δm ([2]; 60 % RH, sorption cycle 1 (S1)) | Water sorption Δm [2, 7] | Water sorption Δm ([2]; 95 % RH, sorption cycle 1 (S1)) | Observed Δm [2, 8] | Observed Δm [2, 9] | Stable %RH range [2, 8] | Stable %RH range [2, 9] | change in mass (Δm) [2] | change in mass (Δm) ([2]; listed as ‐BZ) | Onset of decomposition (DSC exotherm) [3] | solubility ([1]; listed as sodium) | solubility ([1]; listed as ‐Na) | Δm after desorption ([2]; equilibrated value after desorption cycles, 0 % RH)
O=c1c2nc(Br)n([C@@H]3O[C@@H]4CO[P@@](O)(=S)O[C@H]4[C@H]3O)c2nc2[nH]c(-c3ccccc3)cn12.O=c1c2nc(Br)n([C@@H]3O[C@@H]4CO[P@@](O)(=S)O[C@H]4[C@H]3O)c2nc2[nH]c(-c3ccccc3)cn12.c1ccc(CNCCNCc2ccccc2)cc1 [cGMPSA‐BZ, N,N′-Dibenzylethylenediammonium RP-8-Bromo-β-phenyl-1,N2-ethenoguanosine-3′,5′-cyclicmonophosphorothioate (1:2)] | 6,81 | 6.8 (±0.1) | 0.01 (±0.01) mg/mL | −0.2% | 0.7% | 0.6% | 3.9% | 1.9% | 4.7% | 4.8% | 1.3% | 3.9% | 40–70 %RH | 60–95 %RH | 5% | about 5% | – | – | – | –
O=c1c2nc(Br)n([C@@H]3O[C@@H]4COP(=O)(S)O[C@H]4[C@H]3O)c2nc2[nH]c(-c3ccccc3)cn12 (some centres unmarked) [cGMPSA‐H] | 2,47 | 2.5 (±0.2) | 1.7 (±0.1) mg/mL | 0.3% | 5.7% | 5.3% | 6.7% | 6.2% | 9.3% | 9.1% | – | – | – | – | – | – | 163.6 °C and ~ 163 °C | – | – | –
N.O=c1c2nc(Br)n([C@@H]3O[C@@H]4COP(=O)(S)O[C@H]4[C@H]3O)c2nc2[nH]c(-c3ccccc3)cn12 (some centres unmarked) [cGMPSA‐NH4] | 3,16 | 3.2 (±0.1) | 7.9 (±8.0) mg/mL | – | – | – | – | – | – | – | – | – | – | – | – | – | – | – | – | –
O=c1c2nc(Br)n([C@@H]3O[C@@H]4COP(=O)([S-])O[C@H]4[C@H]3O)c2nc2[nH]c(-c3ccccc3)cn12.[Na+] (some centres unmarked) [cGMPSA‐Na] | 5,45 | 5.5 (±0.2) | 38.4 (±11.1) mg/mL | −0.3% | 6.3% | 2.2% | 12.5% | 8.1% | 15.1% | 15.1% | – | – | – | – | – | – | 212 °C | 38 mg/mL | approximately 40 mg/mL | ~ 0

Reference: publication PMC10695737, “Crystal Modifications of a Cyclic Guanosine Phosphorothioate Analogue, a Drug Candidate for Retinal Neurodegenerations” (ChemistryOpen, 2023)
